We go through two compounds from PMC2853757 (Analytical biochemistry, 2009).

Test [1] deals with V-ATPase (vacuolar proton translocating ATPase) (Saccharomyces cerevisiae, UniProt P25515+P32563). In words: BCECF flow cytometry dose response in living yeast. The test is classed as cell-based.
Test [2] deals with V-ATPase (vacuolar proton translocating ATPase; catalytic subunit A) (Saccharomyces cerevisiae, UniProt P16140+P17255). In words: ATP hydrolysis. The test is classed as biochemical.
Chain of V-ATPase (vacuolar proton translocating ATPase; catalytic subunit A) (P17255 2-283): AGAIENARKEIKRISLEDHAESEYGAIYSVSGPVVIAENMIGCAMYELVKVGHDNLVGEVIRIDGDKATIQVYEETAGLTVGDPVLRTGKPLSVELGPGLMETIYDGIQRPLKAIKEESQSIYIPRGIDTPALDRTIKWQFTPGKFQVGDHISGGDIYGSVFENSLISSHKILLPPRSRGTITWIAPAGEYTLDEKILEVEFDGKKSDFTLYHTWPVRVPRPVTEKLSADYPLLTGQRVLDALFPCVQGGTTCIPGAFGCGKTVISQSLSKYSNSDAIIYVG
Chain of V-ATPase (vacuolar proton translocating ATPase; catalytic subunit A) (P17255 738-1071): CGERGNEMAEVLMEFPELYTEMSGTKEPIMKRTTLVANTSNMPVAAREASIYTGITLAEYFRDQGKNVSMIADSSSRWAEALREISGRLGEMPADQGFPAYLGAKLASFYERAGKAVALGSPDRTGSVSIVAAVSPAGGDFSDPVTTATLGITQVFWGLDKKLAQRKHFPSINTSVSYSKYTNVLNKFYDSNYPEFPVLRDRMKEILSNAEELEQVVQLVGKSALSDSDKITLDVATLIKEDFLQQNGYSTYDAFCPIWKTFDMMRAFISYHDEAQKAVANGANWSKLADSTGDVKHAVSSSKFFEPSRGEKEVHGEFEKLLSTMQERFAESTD
Chain of V-ATPase (vacuolar proton translocating ATPase; catalytic subunit A) (P16140 2-517): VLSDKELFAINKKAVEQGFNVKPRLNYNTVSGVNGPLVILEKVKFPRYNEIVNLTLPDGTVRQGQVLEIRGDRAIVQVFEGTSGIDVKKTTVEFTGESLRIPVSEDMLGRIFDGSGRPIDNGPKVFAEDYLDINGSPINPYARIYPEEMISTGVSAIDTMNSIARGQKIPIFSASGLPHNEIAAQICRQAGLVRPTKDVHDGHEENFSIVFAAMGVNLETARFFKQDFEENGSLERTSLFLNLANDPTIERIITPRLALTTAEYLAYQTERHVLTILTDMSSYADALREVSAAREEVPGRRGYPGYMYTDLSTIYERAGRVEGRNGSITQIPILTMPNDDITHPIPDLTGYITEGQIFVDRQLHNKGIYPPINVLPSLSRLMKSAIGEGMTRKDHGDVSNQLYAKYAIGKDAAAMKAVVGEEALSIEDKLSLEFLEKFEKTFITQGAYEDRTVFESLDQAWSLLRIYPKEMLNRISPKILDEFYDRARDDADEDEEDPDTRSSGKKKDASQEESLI
Chain of V-ATPase (vacuolar proton translocating ATPase; catalytic subunit A) (P25515 whole entry partner): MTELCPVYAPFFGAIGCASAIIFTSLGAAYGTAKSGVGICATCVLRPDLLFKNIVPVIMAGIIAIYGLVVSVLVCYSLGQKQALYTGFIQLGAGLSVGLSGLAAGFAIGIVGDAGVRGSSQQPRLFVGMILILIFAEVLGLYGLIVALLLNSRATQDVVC
Chain of V-ATPase (vacuolar proton translocating ATPase; catalytic subunit A) (P32563 2-840 partner): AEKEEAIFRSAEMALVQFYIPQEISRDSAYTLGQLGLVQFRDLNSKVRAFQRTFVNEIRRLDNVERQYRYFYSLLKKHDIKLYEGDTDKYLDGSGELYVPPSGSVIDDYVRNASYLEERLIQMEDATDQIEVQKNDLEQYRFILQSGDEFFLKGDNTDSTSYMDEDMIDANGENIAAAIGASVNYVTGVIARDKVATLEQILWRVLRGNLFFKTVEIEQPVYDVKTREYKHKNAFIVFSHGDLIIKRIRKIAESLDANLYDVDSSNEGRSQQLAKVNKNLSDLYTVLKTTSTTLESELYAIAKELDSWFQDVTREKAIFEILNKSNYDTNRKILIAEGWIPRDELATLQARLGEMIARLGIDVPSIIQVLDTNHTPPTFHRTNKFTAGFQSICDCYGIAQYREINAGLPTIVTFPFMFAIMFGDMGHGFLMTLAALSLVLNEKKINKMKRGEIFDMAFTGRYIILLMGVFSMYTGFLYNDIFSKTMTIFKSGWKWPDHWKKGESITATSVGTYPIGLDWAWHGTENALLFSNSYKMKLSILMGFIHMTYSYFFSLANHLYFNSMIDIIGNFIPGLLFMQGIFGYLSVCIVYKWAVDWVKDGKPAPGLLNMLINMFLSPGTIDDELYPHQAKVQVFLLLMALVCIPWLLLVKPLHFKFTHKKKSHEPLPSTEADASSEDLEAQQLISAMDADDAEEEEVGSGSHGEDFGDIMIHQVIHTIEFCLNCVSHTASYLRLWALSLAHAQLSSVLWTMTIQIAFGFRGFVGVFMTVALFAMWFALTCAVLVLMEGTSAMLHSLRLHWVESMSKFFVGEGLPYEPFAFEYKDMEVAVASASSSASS

Compound `C/C=C/[C@H]1O[C@@](O)([C@@H](C)[C@H](O)[C@H](C)[C@H]2OC(=O)/C(OC)=C/C(C)=C/[C@@H](C)[C@@H](O)[C@@H](CC)[C@@H](O)[C@H](C)C/C(C)=C/C=C/[C@@H]2OC)C[C@@H](O[C@H]2C[C@@H](O)[C@H](OC(N)=O)[C@@H](C)O2)[C@@H]1C` [concanamycin A] displayed an EC50 in test [1] of 2.1 to 2.27 µM.
On to `CCN(CC)C(=S)SSC(=S)N(CC)CC` [disulfiram], for which it took 24.7 µM to reach a half-maximal effect in test [2] (EC50).
